Test: excess molar enthalpy (molar enthalpy of mixing); xn = mol fraction of the nth substance listed
Settings: 101.3 kPa, Liquid, Flow calorimetry

CC(=O)c1ccccc1 [acetophenone] + CC(C)CO
excess molar enthalpy [kJ/mol]
Settings	298.2 K	313.2 K	328.2 K	338.2 K	348.2 K
x1 = 0.1005	0.696	0.804	0.918	0.933	0.94
x1 = 0.201	1.1	1.3	1.49	1.54	1.54
x1 = 0.301	1.37	1.63	1.88	1.93	1.93
x1 = 0.3512	1.45	1.73	1.99	2.04	2.06
x1 = 0.4014	1.51	1.81	2.07	2.12	2.13
x1 = 0.4516	1.55	1.85	2.11	2.16	2.17
x1 = 0.5017	1.57	1.87	2.11	2.16	2.18
x1 = 0.5518	1.56	1.85	2.08	2.12	2.13
x1 = 0.6016	1.53	1.81	2.02	2.05	2.06
x1 = 0.6513	1.48	1.74	1.91	1.94	1.95
x1 = 0.7008	1.4	1.63	1.77	1.78	1.79
x1 = 0.8016	1.13	1.28	1.36	1.36	1.38
x1 = 0.901	0.684	0.741	0.765	0.776	0.784

CC(=O)c1ccccc1 [acetophenone] + O
excess molar enthalpy [kJ/mol]
Settings	298.2 K	313.2 K	328.2 K	338.2 K	348.2 K
x1 = 0.1002	0.0707	0.0906	0.131	0.143	0.167
x1 = 0.1997	0.138	0.177	0.248	0.254	0.323
x1 = 0.3001	0.206	0.266	0.366	0.398	0.483
x1 = 0.3991	0.273	0.354	0.485	0.518	0.639
x1 = 0.5003	0.341	0.443	0.607	0.654	0.805
x1 = 0.5991	0.408	0.531	0.724	0.788	0.963
x1 = 0.6986	0.475	0.619	0.842	0.924	1.12
x1 = 0.7987	0.541	0.705	0.96	1.06	1.29
x1 = 0.8515	0.576	0.732	1	1.02	1.15
x1 = 0.8967	0.588	0.67	0.789	0.802	0.855
x1 = 0.9534	0.301	0.332	0.387	0.392	0.419

— the NIST ThermoML archive (doi:10.1021/je800193a)
